Source: paper PMC6356585 (Viruses, 2018)
Where a name gives a salt, the structure may show the parent alone. Read-outs that look alike come from different tables or passages of the source. Residues, ends and D or L forms follow the SMILES beside them. *: point of attachment. Cbz = O=C(OCc1ccccc1)*

Columns and labels:
C6/36 cells = assay type: cell-based, Ae. albopictus
ZIKV SPH = experiment: Autophagy compound library screen, ZIKV SPH titer (TCID50) in C6/36 cells; assay type: cell-based, Zika virus; details: 10 µM compound, MOI 0.1, 96 h, TCID50, ± SEM, three independent trials; for activity at 10 µM: Zika virus, C6/36, read-out: ZIKV SPH Relative Titer in C6/36 Cells
Vero cells = experiment: Cell viability (CellTiter-Glo) of Vero cells; assay type: cell-based
[1] = 10 µM compound, 96 h, CellTiter-Glo, ± SEM, three independent trials
[2] = 10 µM compound, 40 h, CellTiter-Glo, ± SEM, three independent trials

Row | SMILES | C6/36 Viability (C6/36 cells; [1]) | activity at 10 µM (ZIKV SPH) | Vero Viability (Vero cells; 10 µM) | Vero Viability (Vero cells; [2]) | other results
1 | O=CC[C@@H](O)[C@H](O)[C@H](O)CO [2-Deoxyglucose] | 73 ± 1% of untreated control | 109 ± 61.2% | 98.7 ± 0.9% of untreated control |  | 
2 | C[C@H]1O[C@@H](n2cnc3c(N)ncnc32)C[C@@H]1O [2′,5′-Dideoxyadenosine] | 118 ± 15% of untreated control | 317 ± 162% |  | 95.0 ± 1.5% of untreated control | 
3 | Cn1cnc(N)c2ncnc1-2 [3-Methyladenine] | 120 ± 15.6% of untreated control | 155 ± 41% | 90.7 ± 1.8% of untreated control |  | 
4 | CO/C1=C\C(C)=C\[C@@H](C)[C@@H](O)[C@@H](C)C/C(C)=C/C=C/[C@H](OC)[C@@H]([C@@H](C)[C@@H](O)[C@H](C)[C@@]2(O)C[C@@H](O)[C@H](C)[C@@H](C(C)C)O2)OC1=O [Bafilomycin A1] | 36 ± 6.1% of untreated control | 0% |  | 55.7 ± 9.5% of untreated control | 
5 | C[C@H]1CCC/C=C/[C@@H]2C[C@H](O)C[C@H]2[C@H](O)/C=C/C(=O)O1 [Brefeldin A] |  | 124 ± 25% |  |  | C6/36 Viability (C6/36 cells; 10 µM compound, 96 h, CellTiter-Glo, ± SEM, three independent trials, 10 µM): 91 ± 8.4% of untreated control; C6/36 Viability (C6/36 cells; 10 µM compound, 96 h, CellTiter-Glo, ± SEM, three independent trials, listed as brefeldin A, 10 µM): did not alter viral titers or cell viability; ZIKV SPH Relative Titer in C6/36 Cells (ZIKV SPH): did not alter viral titers; Vero Viability (Vero cells; 10 µM compound, 40 h, CellTiter-Glo, ± SEM, three independent trials, 10 µM): 17.0 ± 2.1% of untreated control; Vero Viability (Vero cells; 10 µM compound, 40 h, CellTiter-Glo, ± SEM, three independent trials, listed as brefeldin A, 10 µM): toxic
6 | Cn1c(=O)c2c(ncn2C)n(C)c1=O [Caffeine] | 83 ± 4.6% of untreated control | 138 ± 37.7% |  | 104.7 ± 8.6% of untreated control | 
7 | COc1cc(CNC(=O)CCCC/C=C/C(C)C)ccc1O [Capsaicin] | 66 ± 7.2% of untreated control | 48.1 ± 12% |  | 91.7 ± 2.4% of untreated control | 
8 | CCN(CC)CCCC(C)Nc1ccnc2cc(Cl)ccc12 (stereo not shown) [Chloroquine] | 81 ± 17.1% of untreated control | 126 ± 44.8% |  | 89.7 ± 4.4% of untreated control | 
9 | Clc1cccc(Cl)c1N=C1NCCN1 [Clonidine·HCl] |  | 95.9 ± 53.4% | 97.7 ± 2.6% of untreated control |  | C6/36 Viability (C6/36 cells; 10 µM): 69 ± 5.4% of untreated control
10 | CCCCC[C@H](O)CC(=O)CCc1ccc(O)c(OC)c1 [Compound 6-Gingerol, 6-Gingerol] | 55 ± 11% of untreated control | 109 ± 9.3% | 100.0 ± 2.5% of untreated control |  | 
11 | COc1cc(/C=C/C(=O)CC(=O)/C=C/c2ccc(O)c(OC)c2)ccc1O [Curcumin] | 3 ± 0.7% of untreated control | 0.3 ± 0.2% | 75.3 ± 11.3% of untreated control |  | 
12 | C[C@@H]1C[C@@H]([C@H](O)CC2CC(=O)NC(=O)C2)C(=O)[C@@H](C)C1 [Cycloheximide] | 24 ± 3.5% of untreated control | 0% |  | 37.3 ± 6.2% of untreated control | 
13 | O=C(/C=C/c1cccnc1)NCCCCC1CCN(C(=O)c2ccccc2)CC1 [FK-866] |  | 92.7 ± 32.4% | 32.7 ± 2.7% of untreated control |  | C6/36 Viability (C6/36 cells; 10 µM): 48 ± 5.5% of untreated control
14 | C=C[C@@]1(C)CC(=O)[C@]2(O)[C@@]3(C)[C@@H](O)CCC(C)(C)[C@@H]3[C@H](O)[C@H](OC(C)=O)[C@@]2(C)O1 [Forskolin] |  | 302 ± 18.3% | 74.7 ± 3.7% of untreated control |  | C6/36 Viability (C6/36 cells; 10 µM): 94 ± 12% of untreated control
15 | COC1=C2C[C@@H](C)C[C@H](OC)[C@H](O)[C@@H](C)/C=C(\C)[C@H](OC(N)=O)[C@@H](OC)/C=C\C=C(/C)C(=O)NC(=CC1=O)C2=O [Geldanamycin] | 45 ± 5.8% of untreated control | 25.8 ± 14.5% | 61.3 ± 5.7% of untreated control |  | 
16 | N[C@H]1C(O)O[C@H](CO)[C@@H](O)[C@@H]1O (stereo partly shown) [Glucosamine HCl] | 88 ± 5.2% of untreated control | 242 ± 45.8% | 99.3 ± 1.9% of untreated control |  | 
17 | Cc1ccc(NC(=O)c2ccc(CN3CCN(C)CC3)cc2)cc1Nc1nccc(-c2cccnc2)n1 [Imatinib mesylate] | 19 ± 5.4% of untreated control | 5.3 ± 2.2% |  |  | 
18 | CC(C)Cn1cnc2c(N)nc3ccccc3c21 [Imiquimod] | 37 ± 8.1% of untreated control | 72.5 ± 18.4% |  | 91.3 ± 1.2% of untreated control | 
19 | O=c1cc(N2CCOCC2)oc2c(-c3ccccc3)cccc12 [LY294002] | 97 ± 17.2% of untreated control | 548 ± 221% |  | 56.0 ± 6% of untreated control | 
20 | CC(C)C[C@@H](C=O)NC(=O)[C@H](CC(C)C)NC(=O)[C@H](CC(C)C)NC(=O)OCc1ccccc1 [MG132] (Cbz-Leu-Leu-Leu-aldehyde) | 31 ± 5.7% of untreated control | 9.5 ± 7.1% | 10.7 ± 2.8% of untreated control |  | 
21 | CN(C)C(=N)N=C(N)N [Metformin·HCl] | 64 ± 10.3% of untreated control |  | 92.3 ± 4.2% of untreated control |  | 
22 | Nc1cc(N2CCCCC2)nc(N)[n+]1[O-] [Minoxidil] | 72 ± 2.6% of untreated control | 146 ± 16.6% | 96.3 ± 3.2% of untreated control |  | 
23 | O=C(Nc1ccc([N+](=O)[O-])cc1Cl)c1cc(Cl)ccc1O [Niclosamide] | 2 ± 0.3% of untreated control | 0.1% | 29.7 ± 3.8% of untreated control |  | 
24 | COCCOC(=O)C1=C(C)NC(C)=C(C(=O)OC(C)C)C1c1cccc([N+](=O)[O-])c1 (stereo not shown) [Nimodipine] | 41 ± 8.4% of untreated control | 26.9 ± 13.6% | 92.0 ± 1.5% of untreated control |  | 
25 | CCOC(=O)C1=C(C)NC(C)=C(C(=O)OC)C1c1cccc([N+](=O)[O-])c1 (stereo not shown) [Nitrendipine] | 62 ± 10.5% of untreated control | 220 ± 44.4% |  | 88.7 ± 1.9% of untreated control | 
26 | Oc1cccc(-c2nc(N3CCOCC3)c3oc4ncccc4c3n2)c1 [PI-103] |  | 46.2 ± 13.3% | 43.7 ± 6.4% of untreated control |  | C6/36 Viability (C6/36 cells; 10 µM): 39 ± 8.9% of untreated control
